Results published in paper doi:10.1101/758409v1 (biorxiv, 2019).
pEC50: −log10 of the molar value.

Target: DDA1-DDB1ΔB-DCAF15Δpro triplex with R1R2 of RBM39 (Homo sapiens, UniProt Q14498+Q66K64, Q66K64:DEL276-383)
Assay: TR-FRET, SPLAM-induced ternary complex formation, Eu-anti-His and APC-anti-FLAG
Type: binding

pEC50: 8.30
SMILES: NS(=O)(=O)c1ccc(S(=O)(=O)Nc2cccc3c(Cl)c[nH]c23)cc1 [indisulam]
